The record followed here is BindingDB's records for doi:10.1046/j.1471-4159.1996.67010145.x (Mcgill University, 1996).

Structures are written as SMILES. Several values for one entry are separate records, joined by “and”; a condition that tells them apart may be missing. Identical values can stand only once. A value given as a limit tells only on which side of the number the result lay.

The assay addresses T1, Alpha-bungarotoxin (Bungarus multicinctus, UniProt P60615).
T1 sequence (P60615 whole entry): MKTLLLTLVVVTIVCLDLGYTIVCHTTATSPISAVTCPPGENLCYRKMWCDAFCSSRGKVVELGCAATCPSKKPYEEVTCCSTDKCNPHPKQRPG
By Ki is commonly meant the dissociation constant of the complex between target and ligand, obtained from inhibition or displacement. A lower Ki goes with higher affinity. The compound `C[N+](C)(C)C` yielded a Ki of 2400 nM. In other words, the single-digit micromolar range. As for `C=C(C=O)C[C@H]1C[C@H](O)[C@]2(C)O[C@@H]3C[C@@H]4O[C@@H]5C[C@]6(C)O[C@]7(C)CC[C@@H]8O[C@@H]9C[C@]%10(C)O[C@@H]%11C(C)=CC(=O)O[C@H]%11C[C@H]%10O[C@H]9C[C@@H](C)[C@H]8O[C@H]7C[C@H]6O[C@@]5(C)C/C=C\[C@H]4O[C@H]3C[C@H]2O1`, the figure is 0.35 nM and 0.23 nM; as for `CC[N+](CC)(CC)CC`, greater than 10000 nM; as for `O=c1cccc2n1C[C@H]1CNC[C@H]2C1` [(1S,9R)-7,11-diazatricyclo[7.3.1.0~2,7~]trideca-2,4-dien-6-one], 1800 nM.

The compound `C[N+](C)(C)CCOC(N)=O` [(2-Hydroxyethyl)trimethyl ammonium chloride carbamate] gave a Ki of 9300 nM.

In the case of `CN1CCC[C@H]1c1cccnc1` [(R,S)-nicotine], the Ki was 1700 nM and 900 nM. The result for `COc1cc2c3cc1Oc1cc(ccc1O)C[C@H]1c4c(cc(OC)c(O)c4Oc4ccc(cc4)C[C@@H]3N(C)CC2)CC[N+]1(C)C` [CAS_57-94-3] reads 5600 nM; that for `C[N+]1(C)CCN(c2ccccc2)CC1` [DMPP], 670 nM; that for `CCN1C[C@]2(COC(=O)c3ccccc3-n3c(O)cc(C)c3O)CC[C@H](OC)[C@]34C5C[C@@H]6[C@@H](OC)C[C@@](O)(C5[C@H]6OC)[C@@](O)(C13)[C@@H](OC)C24` (stereo partly drawn) [[(1S,4S,5R,6S,8R,9R,13S,16S,18S)-11-ethyl-8,9-dihydroxy-4,6,16,18-tetramethoxy-11-azahexacyclo[7.7.2.1^{2,5}.0^{1,10}.0^{3,8}.0^{13,17}]nonadecan-13-yl]methyl 2-[(3S)-3-methyl-2,5-dioxopyrrolidin-1-yl]benzoate], 7.9 nM and 3.1 nM.
